Assay results from ChEMBL document CHEMBL1201862, “PubChem BioAssay data set” (2004).
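Five compound concentrations were applied to cells in 96-well plates for 48 hours; endpoints were derived by simple linear interpolation of the resulting dose-response curve. Here, GI50 denotes the concentration required for 50% inhibition of growth.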 The source made the active and inactive calls. No stated cut-off is given here; in the data, active = GI50 up to about 1.1 µM and inactive = higher.

Key:
Test in all cases: DTP human tumour cell line panel, 48 h
A549 = system: A549
UACC-62 = system: UACC-62
NCI-H522 = system: NCI-H522
SN12C = system: SN12C
HOP-62 = system: HOP-62
SK-MEL-5 = system: SK-MEL-5
SR = system: SR
HCT-15 = system: HCT-15
SW-620 = system: SW-620
M14 = system: M14
UO-31 = system: UO-31
NCI-H23 = system: NCI-H23
OVCAR-5 = system: OVCAR-5
OVCAR-3 = system: OVCAR-3
EKVX = system: EKVX

| Structure (SMILES) | GI50 (A549) | GI50 (UACC-62) | GI50 (NCI-H522) | GI50 (SN12C) | GI50 (HOP-62) | GI50 (SK-MEL-5) | GI50 (SR) | GI50 (HCT-15) | GI50 (SW-620) | GI50 (M14) | GI50 (UO-31) | GI50 (NCI-H23) | GI50 (OVCAR-5) | GI50 (OVCAR-3) | GI50 (EKVX) |
| --- | --- | --- | --- | --- | --- | --- | --- | --- | --- | --- | --- | --- | --- | --- | --- |
| CC(C)O/C=C1\C(=O)C2(SCCS2)[C@H]2CCCC[C@@H]12 | 37.9 µM (inactive) | 20.9 µM (inactive) | 20.5 µM (inactive) | 68.7 µM (inactive) | 38 µM (inactive) | 25.2 µM (inactive) | 48.9 µM (inactive) | 33.9 µM | 42.7 µM (inactive) | 42.6 µM (inactive) | 41.3 µM (inactive) |  |  |  |  |
| CN(C(=O)c1ccco1)C(=S)N1CCN(c2ccccc2)CC1 | > 100 µM (inactive) | > 100 µM (inactive) | > 100 µM (inactive) | > 100 µM (inactive) | > 100 µM (inactive) | > 100 µM (inactive) | > 100 µM (inactive) | > 100 µM | > 100 µM (inactive) | > 100 µM (inactive) | > 100 µM (inactive) | > 100 µM (inactive) | > 100 µM (inactive) | > 100 µM (inactive) |  |
| c1ccc(SC(Sc2ccccc2)=C2CCC2)cc1 | > 100 µM (inactive) | 65 µM (inactive) | > 100 µM (inactive) | > 100 µM (inactive) | > 100 µM (inactive) | > 100 µM (inactive) | > 100 µM (inactive) | > 100 µM | > 100 µM (inactive) | > 100 µM (inactive) | > 100 µM (inactive) | > 100 µM (inactive) |  | > 100 µM (inactive) | > 100 µM (inactive) |
| CSC1C=C(C(C)C)CCC1(C)SC (centres undefined) | 31.5 µM (inactive) | 25.6 µM (inactive) | 16.3 µM (inactive) | 16.9 µM (inactive) | 19.5 µM (inactive) | 17.5 µM (inactive) |  | 21 µM | 19.9 µM (inactive) | 16.9 µM (inactive) | 14.3 µM (inactive) | 19.3 µM (inactive) | 16.2 µM (inactive) | 12.6 µM (inactive) | 24.5 µM (inactive) |
| Cc1nc2sccn2c1C(=O)NN | > 100 µM (inactive) | > 100 µM (inactive) | > 100 µM (inactive) | > 100 µM (inactive) | > 100 µM (inactive) | > 100 µM (inactive) | > 100 µM (inactive) | > 100 µM | > 100 µM (inactive) |  |  | > 100 µM (inactive) | > 100 µM (inactive) | > 100 µM (inactive) | > 100 µM (inactive) |
| Cn1cnc([N+](=O)[O-])c1Sc1nnnn1C | 99.5 µM (inactive) | 17.1 µM (inactive) | 6.38 µM (inactive) | 16.3 µM (inactive) | > 100 µM (inactive) | 17.3 µM (inactive) | 11.4 µM (inactive) |  | 13.1 µM (inactive) | 14.8 µM (inactive) | 15.3 µM (inactive) | 19.6 µM (inactive) | 23.9 µM (inactive) | 15.9 µM (inactive) | 18.3 µM (inactive) |
| COC(=O)C(=O)C(C(=O)C(=O)Nc1ccccc1[N+](=O)[O-])c1nc2ccc([N+](=O)[O-])cc2nc1O (centres undefined) | > 100 µM (inactive) | > 100 µM (inactive) | > 100 µM (inactive) | > 100 µM (inactive) |  | 46.2 µM (inactive) | > 100 µM (inactive) | > 100 µM | > 100 µM (inactive) | > 100 µM (inactive) | > 100 µM (inactive) | > 100 µM (inactive) | > 100 µM (inactive) |  | > 100 µM (inactive) |
| C/C(=N/O)c1ccc2c(c1)/C(=N/O)c1cc(/C(C)=N/O)ccc1-2 | 10.6 µM (inactive) | 14.2 µM (inactive) | 18.9 µM (inactive) | 16.3 µM (inactive) | 13.4 µM (inactive) | 14.9 µM (inactive) | 3.45 µM (inactive) | 14.1 µM | 14.5 µM (inactive) | 16.4 µM (inactive) | 15.1 µM (inactive) | 12.9 µM (inactive) | 17.4 µM (inactive) | 20.3 µM (inactive) | 7.13 µM (inactive) |
| COc1ccc(C(=O)C(c2ccc(OC)cc2)C2(O)C(=O)Nc3c(C)cc(Cl)cc32)cc1 (centres undefined) | > 100 µM (inactive) | 23.2 µM (inactive) | 28 µM (inactive) | 58.1 µM (inactive) | > 100 µM (inactive) |  | 12.5 µM (inactive) | > 100 µM | > 100 µM (inactive) | 92 µM (inactive) | > 100 µM (inactive) | 85.5 µM (inactive) | > 100 µM (inactive) | 52 µM (inactive) | > 100 µM (inactive) |
| O=C(CC1(O)C(=O)Nc2c(Cl)ccc(Cl)c21)c1ccc(F)cc1 (centres undefined) | 58.1 µM (inactive) |  | 30.3 µM (inactive) | 60.1 µM (inactive) | 46.7 µM (inactive) | 17.9 µM (inactive) |  | 38.7 µM | 34.1 µM (inactive) | 38.8 µM (inactive) | 44.5 µM (inactive) | 23.2 µM (inactive) | > 100 µM (inactive) | 34.8 µM (inactive) | 44.4 µM (inactive) |
| O=C1C(=Cc2ccc(F)cc2)C(=O)c2ccccc21 | > 100 µM (inactive) | > 100 µM (inactive) | > 100 µM (inactive) |  | > 100 µM (inactive) | > 100 µM (inactive) |  | > 100 µM | > 100 µM (inactive) | > 100 µM (inactive) | > 100 µM (inactive) | > 100 µM (inactive) | > 100 µM (inactive) | > 100 µM (inactive) | > 100 µM (inactive) |
| CN(/N=C\c1ccnc2ccccc12)c1ccccc1 | 21.6 µM (inactive) | 19.5 µM (inactive) | 17.8 µM (inactive) | 29.9 µM (inactive) | 28.1 µM (inactive) | 17.3 µM (inactive) |  | 17.1 µM | 23 µM (inactive) | 18.9 µM (inactive) | 25.1 µM (inactive) | 22.3 µM (inactive) | 16.8 µM (inactive) | 20.2 µM (inactive) | 9.12 µM (inactive) |
| CCC12C=CCN(CCc3c([nH]c4ccccc34)/C=C\1)C2 (centres undefined) | > 100 µM (inactive) | > 100 µM (inactive) | > 100 µM (inactive) | > 100 µM (inactive) | > 100 µM (inactive) | > 100 µM (inactive) | > 100 µM (inactive) | > 100 µM | > 100 µM (inactive) | > 100 µM (inactive) | > 100 µM (inactive) | > 100 µM (inactive) |  | > 100 µM (inactive) | > 100 µM (inactive) |
| CSc1nnc(COc2ccc(Cl)cc2)o1 | > 100 µM (inactive) | > 100 µM (inactive) | > 100 µM (inactive) | > 100 µM (inactive) | > 100 µM (inactive) | > 100 µM (inactive) |  | > 100 µM | > 100 µM (inactive) | > 100 µM (inactive) | > 100 µM (inactive) | > 100 µM (inactive) | > 100 µM (inactive) | > 100 µM (inactive) | > 100 µM (inactive) |
| O=C(O)CSc1nnc(-c2ccccc2O)[nH]1 | > 100 µM (inactive) | > 100 µM (inactive) |  | > 100 µM (inactive) |  | > 100 µM (inactive) | > 100 µM (inactive) | > 100 µM | > 100 µM (inactive) | > 100 µM (inactive) | > 100 µM (inactive) | > 100 µM (inactive) | > 100 µM (inactive) | > 100 µM (inactive) | > 100 µM (inactive) |
| O=c1c2ccccc2nc(-c2ccccc2Cl)n1NC1OC(CO)C(O)C(O)C1O (centres undefined) | > 100 µM (inactive) | > 100 µM (inactive) | > 100 µM (inactive) | > 100 µM (inactive) | > 100 µM (inactive) | > 100 µM (inactive) |  | > 100 µM | > 100 µM (inactive) | > 100 µM (inactive) | > 100 µM (inactive) | > 100 µM (inactive) | > 100 µM (inactive) | > 100 µM (inactive) | > 100 µM (inactive) |
| NC(=O)c1nc(-c2ccc(Cl)c(Cl)c2)nc2ccccc12 | > 21.4 µM (inactive) | > 24.9 µM (inactive) | > 100 µM (inactive) | > 100 µM (inactive) | > 21.9 µM (inactive) | > 49.3 µM (inactive) | > 100 µM (inactive) | > 100 µM | > 22 µM (inactive) | > 100 µM (inactive) |  | 39.7 µM (inactive) | > 100 µM (inactive) |  | > 41.6 µM (inactive) |
| COc1ccc(NC(=O)CC(=O)N/N=C(\C)c2cc3ccccc3oc2=O)cc1 | > 100 µM (inactive) | > 100 µM (inactive) | > 100 µM (inactive) | > 100 µM (inactive) | > 100 µM (inactive) | > 100 µM (inactive) |  | > 100 µM | > 100 µM (inactive) | > 100 µM (inactive) | > 100 µM (inactive) | > 100 µM (inactive) |  | > 100 µM (inactive) | > 100 µM (inactive) |
| O=C(CN1C(=O)c2ccccc2C1=O)OC1C=CCCC1 (centres undefined) | > 100 µM (inactive) | > 100 µM (inactive) | 72.8 µM (inactive) | > 100 µM (inactive) | > 100 µM (inactive) | > 100 µM (inactive) | > 100 µM (inactive) | > 100 µM | > 100 µM (inactive) | > 100 µM (inactive) | > 100 µM (inactive) |  |  |  | > 100 µM (inactive) |
| C=CCc1ccc(O)c(-c2cc(C3Oc4c(-c5cc(CC=C)ccc5O)cc(O)cc4[C@@H]3CO)ccc2O)c1 (some centres undefined) | 56 µM (inactive) | 30.3 µM (inactive) | 20.1 µM (inactive) | 32.9 µM (inactive) | 21.4 µM (inactive) | 16 µM (inactive) | 14.4 µM (inactive) | 15.8 µM | 15.7 µM (inactive) | 37.5 µM (inactive) | 40.2 µM (inactive) | 23.7 µM (inactive) | 56.1 µM (inactive) | 20.1 µM (inactive) | 64.4 µM (inactive) |
| CCCCCCCCCCCCCCCC(=O)NCC(COP(=O)([O-])OCC[N+](C)(C)C)OCC (centres undefined) | 21 µM (inactive) | 9.35 µM (inactive) |  | 12.5 µM (inactive) | 7.35 µM (inactive) | 18.9 µM (inactive) | 4.58 µM (inactive) | 6.4 µM | 13 µM (inactive) | 11.5 µM (inactive) | 18.5 µM (inactive) | 18.8 µM (inactive) | 10 µM (inactive) | 6.25 µM (inactive) | 19.2 µM (inactive) |
